Laboratory results as given in patent US20040209897A1 (Pharmacia Corporation, priority 2002, published 2004).

Key:
SCW-induced arthritis = experiment: Streptococcus cell wall (SCW)-induced arthritis, paw volume / paw swelling; assay type: in vivo; conditions: rats, FIG. 4, A at 20, 60, 200 mpk/day, B at 60, 120, 240 mpk/day
[1] = system: streptococcal cell wall (SCW)-induced arthritis; experiment: Chronic streptococcal cell wall (SCW)-induced arthritis in Lewis rats, paw volume; assay type: in vivo; conditions: female Lewis rats, daily dosing from day 10, paw volume measured 11 days after start of administration, A at 200, 60, 20 mpk/day, B at 240, 120, 60 mpk/day, FIG. 3
Excerpt: The use of Lewis rats with chronic streptococcal cell wall (SCW)-induced arthritis as models for testing potentially therapeutic compounds has been described by Richards, P. J., et al., Rhermatology (Oxford), 40(9):978-987 (2001), and Melay, L. M. et al, Bioorg. Med. Chem., 9(2):537-554 (2001), among others. In the present test, female Lewis rats were divided into eight groups. One group served as the “normal” control and received no arthritis inducement. Chronic streptococcal cell wall (SCW)-induced arthritis was induced in the remaining seven groups. One of the severn groups in which arthritis was induced served as a “vehicle” control and received dosage only of vehicle at the same intervals as those rats receiving the test compounds. Three additional groups of rats received the vehicle plus 2-{2-[(E)-2-phenylethenyl]pyridin-4-yl}-1,5,6,7-tetrahydro-4H-pyrrolo[3,2-c]pyridin-4-one (Compound “A”) in daily dosages. All rats were started on the test at day 0. […]
To measure the effectiveness of the compounds for the treatment of SCW-induced arthritis, rat paw volume was measured at eleven (11) days from the initiation of administration of the test compounds. […]

granulomas = conditions: laboratory rats; cited from earlier work
[2] = system: collagen-induced arthritis; conditions: mouse; cited from earlier work
MK-2 = conditions: cited from earlier work
adjuvant arthritis = conditions: rat; cited from earlier work
endotoxin-induced shock = conditions: murine model of endotoxin-induced shock; cited from earlier work

With `O=C1NCCc2[nH]c(-c3ccnc(/C=C/c4ccccc4)c3)cc21` [Compound A, 2-{2-[(E)-2-phenylethenyl]pyridin-4-yl}-1,5,6,7-tetrahydro-4H-pyrrolo[3,2-c]pyridin-4-one] the “percent inhibition in paw swelling as a function of the dosage rate” value (SCW-induced arthritis) was “typical dose-response behavior” and the “average paw volume (increase versus vehicle controls)” value [1] was “significantly lower increases in paw volume”.
For `Nc1nccc(-c2c(-c3ccc(F)cc3)ncn2C2CCNCC2)n1` [SB 220025], the “vascular density of granulomas” value (granulomas) is listed as “significant dose-dependent decrease”.
For `C[S+]([O-])c1ccc(-c2nc(-c3ccncc3)c(-c3ccc(F)cc3)[nH]2)cc1` (stereo not shown) [SB203580], the “development of collagen-induced arthritis” value [2] is listed as “inhibit the development”, the “inhibition of activation of MK-2” value (MK-2) is listed as “inhibit activation” and the “development of adjuvant arthritis” value (adjuvant arthritis) is listed as “inhibit the development”. For the same compound, the mortality (endotoxin-induced shock) was “reduce mortality”.
